According to patent US20260085034A1, “N-(BENZHYDRYL)CYCLOALKYLCARBOXAMIDE DERIVATIVES AS INHIBITORS OF GLYCOGEN SYNTHASE 1 (GYS1) AND METHODS OF USE THEREOF” (Maze Therapeutics, Inc., priority 2022, published 2026):

Biological target: T1, recombinant hGYS1/GN1 protein (Homo sapiens, UniProt P13807)
T1 sequence (P13807 1-737): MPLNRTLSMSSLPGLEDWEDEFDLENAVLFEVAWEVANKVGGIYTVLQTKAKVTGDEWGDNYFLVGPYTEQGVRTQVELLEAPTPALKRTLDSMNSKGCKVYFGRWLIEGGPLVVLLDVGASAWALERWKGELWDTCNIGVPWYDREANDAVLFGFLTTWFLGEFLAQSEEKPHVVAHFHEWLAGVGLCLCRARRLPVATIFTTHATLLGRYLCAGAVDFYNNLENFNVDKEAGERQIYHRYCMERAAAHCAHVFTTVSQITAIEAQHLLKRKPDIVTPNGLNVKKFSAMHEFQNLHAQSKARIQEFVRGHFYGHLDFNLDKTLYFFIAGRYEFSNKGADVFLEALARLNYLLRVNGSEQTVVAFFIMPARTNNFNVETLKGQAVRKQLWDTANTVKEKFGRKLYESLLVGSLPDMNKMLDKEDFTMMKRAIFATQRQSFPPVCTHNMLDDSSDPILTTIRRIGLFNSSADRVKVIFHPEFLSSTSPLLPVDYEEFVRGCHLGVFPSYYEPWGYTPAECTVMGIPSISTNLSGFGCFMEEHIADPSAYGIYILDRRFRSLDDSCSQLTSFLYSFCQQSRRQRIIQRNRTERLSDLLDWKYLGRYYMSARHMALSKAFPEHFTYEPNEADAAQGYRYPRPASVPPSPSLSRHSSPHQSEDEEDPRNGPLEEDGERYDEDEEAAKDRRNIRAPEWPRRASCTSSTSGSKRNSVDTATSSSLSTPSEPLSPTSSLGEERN
T1 sequence (P46976 1-350 partner): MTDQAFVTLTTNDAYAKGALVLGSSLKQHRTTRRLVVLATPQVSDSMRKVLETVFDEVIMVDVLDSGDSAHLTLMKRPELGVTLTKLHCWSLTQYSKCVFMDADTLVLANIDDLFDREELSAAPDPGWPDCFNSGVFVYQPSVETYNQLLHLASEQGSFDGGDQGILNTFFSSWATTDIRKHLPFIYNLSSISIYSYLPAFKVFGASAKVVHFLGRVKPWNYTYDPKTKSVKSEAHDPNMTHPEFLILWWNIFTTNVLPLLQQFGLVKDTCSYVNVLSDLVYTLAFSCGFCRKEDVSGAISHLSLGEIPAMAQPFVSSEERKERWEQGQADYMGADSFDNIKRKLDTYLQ
Test: GYS1 coupled enzyme assay (PK/LDH)
Format: biochemical
Conditions: geometric mean of at least 2 assay runs; NADH absorbance at 340 nm
Procedure, shortened: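 Recombinant hGYS1/GN1 (50 nM) with 0.8 mM UDP-glucose, 0.2% glycogen and 1 mM glucose-6-phosphate in Tris pH 7.5, 2.5% DMSO. UDP formation coupled via PK/LDH to NADH oxidation, read at 340 nm over 10 min. Control-normalized slopes fit to Hill equation; IC50 as geometric mean of ≥2 runs.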

CC(C)c1ccc([C@@H](NC(=O)[C@H]2C[C@@H]2F)c2ccn[nH]2)cc1F (single isomer, unassigned) [compound 11]
IC50: 145 nM
